Laboratory results as given in patent US11723894B2, “Combination product for the treatment of neurological and/or psychiatric disorders” (Consejo Superior de Investigaciones Cientificas (CSIC), priority 2017, dated 2023).

Experiments:
microglial cells = experiment: LPS-induced nitrite production (Griess) in primary microglial cultures; type: cell-based, rat; settings: microglia; for reduction of LPS-induced nitrite in the presence of Rit: Rit 1 μM 1 h before tryptamine 1 μM, then LPS 10 μg/mL 24 h; for LPS-induced nitrite increases: tryptamine 1 μM before LPS 10 μg/mL, 24 h, vs LPS alone
Description: (§1) Example 8: DMT, DET, DPT and 5-MeO-DMT administration in vitro prevents inflammation in rat primary glial cells. […] Rat primary glial cell cultures were prepared from the cerebral cortex of 3 day old rats which were dissected, dissociated, and incubated with 0.25% trypsin/EDTA at 37° C. for 1 h. After centrifugation, the pellet was washed three times with HBSS (Gibco) and the cells were plated in poly-D-lysine (20 μg/mL) pretreated flasks (75 cm2). After 7-10 days, the flasks were agitated in an orbital shaker for 4 h at 230 rpm at 37° C. and non-adherent microglial cells were isolated and plated. Then Dulbecco's Modified Eagle's Medium (DMEM) was added to the flasks, which were agitated in a horizontal shaker at 260 rpm at 37° C. After overnight agitation, the supernatant (oligodendrocytes and some remaining microglial cells) was removed, and astrocytes (adherent cells) were collected. The purity of the cultures was >95%, as determined by immunofluorescence analysis using an anti-glial fibrillary acidic protein (GFAP; clone G-A-5; Sigma-Aldrich) antibody to identify astrocytes, and an anti-Iba1 (Wako Catalog No. 019-19741) antibody to identify microglial cells. On attaining semiconfluence, cells were administered each of the test tryptamines at 1 μM or with the combination test tryptamine+Ritanserin (Rit at 1 μM) 2 h before exposure to lipopolysaccharide (LPS, 10 μg/mL; Sigma-Aldrich) and kept in the presence of each drug or drug combination for 24 h. In combination studies, Rit was added to medium 1h before administration of the corresponding tryptamine. Vehicle-treated cultures were used as a control. After the 24 h drug exposure period, cultures were tested to assess nitrite release. To quantify nitrite concentrations in culture medium, supernatants of glial cultures were collected and mixed with an equal volume of Griess reagent (Sigma-Aldrich). Samples were then incubated at room temperature for 15 min and absorbance was measured at 540 nm on a microplate reader. Results are expressed as the mean±SEM of six replications in three different experiments

astrocytes = experiment: LPS-induced nitrite production (Griess) in primary astrocyte cultures; type: cell-based, rat; settings: for reduction of LPS-induced nitrite in the presence of Rit: Rit 1 μM 1 h before tryptamine 1 μM, then LPS 10 μg/mL 24 h; for LPS-induced nitrite increases: tryptamine 1 μM before LPS 10 μg/mL, 24 h, vs LPS alone
Description: as §1

[1] = tested on: Human SH-SY5Y dopaminergic cells; experiment: 6-OHDA in vitro model of Parkinson's Disease, cell viability (MTT); type: cell-based; settings: tryptamine 1 μM 1 h, then 6-OHDA 30 μM 24 h; for reduction in dopaminergic cell death in the presence of Ritanserin: Rit 1 μM 1 h; for percentage of viable dopaminergic neurons: vs 6-OHDA alone
Excerpt: (§2) Example 9: DMT, DET, DPT and 5-MeO-DMT prevent dopaminergic cell death and inflammation (Only Measured for DMT) caused by the potent and selective dopaminergic toxin 6-OHDA in an in vitro model of Parkinson's Disease. These desired effects are preserved in the presence of the 5-HT2A antagonist Ritanserin (Rit). The Human SH-SY5Y dopaminergic cell line was obtained from Sigma-Aldrich, cultured in 96-well plates and propagated in RPMI medium containing glutamine (1%) and 15% of fetal bovine serum (FBS) plus antibiotic (gentamicin), under humidified 5% CO2 and 95% air. On attaining semiconfluence, separate groups of cells were treated with either: a) one of the four hallucinogenic tryptamines at 1 μM for 1 h, followed by 6-OHDA at 30 μM for 24 hours; or b) Rit at 1 μM for 1h, followed one of the four hallucinogenic tryptamines at 1 μM for an additional hour, at which point 6-OHDA was administered, also at 30 μM, and kept for 24 hours. Vehicle-treated cultures were used as controls. Cell cultures were then processed to assess cell viability (for all four tryptamines) and quantification of nitrite concentration (only performed in the DMT and DMT+Rit tests). Cell viability was measured using the MTT assay (Roche Diagnostic, GmbH), which is based on the ability of viable cells to reduce yellow MTT to blue formazan. After the aforementioned 24 h period in the presence of the different tryptamines or the respective tryptamine+Rit combinations, cells were incubated with MTT (0.5 mg/ml, 4 h) and subsequently solubilized in 10% SDS/0.01 M HCl for 12 h in the dark. The extent of MTT reduction was quantified by absorbance measurement at the 595 nm wavelength, as indicated in the instructions provided by the manufacturer. Nitrite quantification: Due to access to equipment problems at the time the experiments with DET, DPT and 5-MeO-DMT were conducted, the assessment of nitrite levels in the medium could only be done for the DMT experiments. These determinations were carried out as described in Example 8. Results from the cell viability tests are expressed as the percentage of viable dopaminergic cells measured. Results from nitrite determinations are expressed as actual concentrations (μM). Results from both techniques are presented in bar graphs.

[2] = as above; type: cell-based, human; settings: human, SH-SY5Y dopaminergic cells, 6-OHDA alone 30 μM 24 h
Excerpt: as §2

[3] = tested on: dopaminergic neurons of the Substantia nigra pars compacta; experiment: 6-OHDA in vivo model of Parkinson's Disease (injection into Substantia nigra pars compacta); set-up: species or system C57BL/6 mice; settings: 5 μg 6-OHDA alone into SNpc, 3 weeks
Description: Example 10: DMT administration prevents dopaminergic cell death in a in vivo model of Parkinson's disease. Adult male C57BL/6 mice (8-12 weeks old) were used in this study. Animals were properly anaesthetized and placed in a stereotaxic apparatus (Kopf Instruments, CA). 6-OHDA (5 μg in […] PBS) was injected into the right side of the Substantia nigra pars compacta (SNpc) (coordinates from Bregma: posterior −3.2 mm; lateral +2.0 mm; ventral: +4.7 mm, according to the atlas of Paxinos and Franklin, The Mouse Brain in Stereotaxic Coordinates. 4. San Diego: Academic Press; 2012). Control animals of the same age were injected with PBS. A third group received an injection with 6-OHDA (5 μg) combined with DMT (0.1 μg) in […] PBS. Mice were then housed individually to recover and sacrificed 3 weeks later. At this point animals were anaesthetized and perfused transcardially with a 4% paraformaldehyde solution. The brains were removed, postfixed in the same solution at 4° C. overnight, cryoprotected in 20% sucrose, frozen, and 30 μm coronal sections were obtained in a cryostat. Free-floating sections were processed for double fluorescent immunohistochemistry. […] Neuronal integrity and specifically dopaminergic cell death was assessed by counting the percentage of TH^+ cells in the SNpc following a stereological approach. […] Images were analyzed using computer-assisted image analysis software (Soft Imaging System Corporation, Lakewood, Colo.). Results were expressed as the percentage of dopaminergic cell loss in the SNpc.

SMILES: CCCN(CCC)CCc1c[nH]c2ccccc12 [DPT, N,N-dipropyltryptamine]
- reduction of LPS-induced nitrite in the presence of Rit (microglial cells): maintained
- LPS-induced nitrite increases (microglial cells): significantly reduced
- reduction of LPS-induced nitrite in the presence of Rit (astrocytes): maintained
- LPS-induced nitrite increases (astrocytes): significantly reduced
- reduction in dopaminergic cell death in the presence of Ritanserin [1]: maintained
- percentage of viable dopaminergic neurons [1]: significant increases

SMILES: COc1ccc2[nH]cc(CCN(C)C)c2c1 [5-MeO-DMT, 5-methoxy-N,N-dimethyltryptamine]
- reduction of LPS-induced nitrite in the presence of Rit (microglial cells): maintained
- LPS-induced nitrite increases (microglial cells): significantly reduced
- reduction of LPS-induced nitrite in the presence of Rit (astrocytes): maintained
- LPS-induced nitrite increases (astrocytes): significantly reduced
- reduction in dopaminergic cell death in the presence of Ritanserin [1]: maintained
- percentage of viable dopaminergic neurons [1]: significant increases

SMILES: NCCc1cc(O)c(O)cc1O [6-OHDA, 6-hydroxy-dopamine, reference compound]
- viability at 24 h, 30 μM ([2]; DET, DPT and 5-MeO-DMT experiments, read-out: cell viability, of the reference control value): ~60%
- cytotoxicity at 24 h, 30 μM ([2]; DMT experiments (graph A.1), read-out: reduction in the number of viable dopaminergic cells compared to vehicle treated cultures): 50%
- average percentage of dopaminergic cell loss in the SNpc [3]: 60%

SMILES: CCN(CC)CCc1c[nH]c2ccccc12 [DET, N,N-diethyltryptamine]
- reduction of LPS-induced nitrite in the presence of Rit (microglial cells): maintained
- LPS-induced nitrite increases (microglial cells): significantly reduced
- reduction of LPS-induced nitrite in the presence of Rit (astrocytes): maintained
- LPS-induced nitrite increases (astrocytes): significantly reduced
- reduction in dopaminergic cell death in the presence of Ritanserin [1]: maintained
- percentage of viable dopaminergic neurons [1]: significant increases
